Among the data in US11130726B2, “Therapeutic compounds and methods of use thereof” (GENENTECH, INC., priority 2015, dated 2021) are IC50 values, retold here.

T1 sequence (Q15858 whole entry): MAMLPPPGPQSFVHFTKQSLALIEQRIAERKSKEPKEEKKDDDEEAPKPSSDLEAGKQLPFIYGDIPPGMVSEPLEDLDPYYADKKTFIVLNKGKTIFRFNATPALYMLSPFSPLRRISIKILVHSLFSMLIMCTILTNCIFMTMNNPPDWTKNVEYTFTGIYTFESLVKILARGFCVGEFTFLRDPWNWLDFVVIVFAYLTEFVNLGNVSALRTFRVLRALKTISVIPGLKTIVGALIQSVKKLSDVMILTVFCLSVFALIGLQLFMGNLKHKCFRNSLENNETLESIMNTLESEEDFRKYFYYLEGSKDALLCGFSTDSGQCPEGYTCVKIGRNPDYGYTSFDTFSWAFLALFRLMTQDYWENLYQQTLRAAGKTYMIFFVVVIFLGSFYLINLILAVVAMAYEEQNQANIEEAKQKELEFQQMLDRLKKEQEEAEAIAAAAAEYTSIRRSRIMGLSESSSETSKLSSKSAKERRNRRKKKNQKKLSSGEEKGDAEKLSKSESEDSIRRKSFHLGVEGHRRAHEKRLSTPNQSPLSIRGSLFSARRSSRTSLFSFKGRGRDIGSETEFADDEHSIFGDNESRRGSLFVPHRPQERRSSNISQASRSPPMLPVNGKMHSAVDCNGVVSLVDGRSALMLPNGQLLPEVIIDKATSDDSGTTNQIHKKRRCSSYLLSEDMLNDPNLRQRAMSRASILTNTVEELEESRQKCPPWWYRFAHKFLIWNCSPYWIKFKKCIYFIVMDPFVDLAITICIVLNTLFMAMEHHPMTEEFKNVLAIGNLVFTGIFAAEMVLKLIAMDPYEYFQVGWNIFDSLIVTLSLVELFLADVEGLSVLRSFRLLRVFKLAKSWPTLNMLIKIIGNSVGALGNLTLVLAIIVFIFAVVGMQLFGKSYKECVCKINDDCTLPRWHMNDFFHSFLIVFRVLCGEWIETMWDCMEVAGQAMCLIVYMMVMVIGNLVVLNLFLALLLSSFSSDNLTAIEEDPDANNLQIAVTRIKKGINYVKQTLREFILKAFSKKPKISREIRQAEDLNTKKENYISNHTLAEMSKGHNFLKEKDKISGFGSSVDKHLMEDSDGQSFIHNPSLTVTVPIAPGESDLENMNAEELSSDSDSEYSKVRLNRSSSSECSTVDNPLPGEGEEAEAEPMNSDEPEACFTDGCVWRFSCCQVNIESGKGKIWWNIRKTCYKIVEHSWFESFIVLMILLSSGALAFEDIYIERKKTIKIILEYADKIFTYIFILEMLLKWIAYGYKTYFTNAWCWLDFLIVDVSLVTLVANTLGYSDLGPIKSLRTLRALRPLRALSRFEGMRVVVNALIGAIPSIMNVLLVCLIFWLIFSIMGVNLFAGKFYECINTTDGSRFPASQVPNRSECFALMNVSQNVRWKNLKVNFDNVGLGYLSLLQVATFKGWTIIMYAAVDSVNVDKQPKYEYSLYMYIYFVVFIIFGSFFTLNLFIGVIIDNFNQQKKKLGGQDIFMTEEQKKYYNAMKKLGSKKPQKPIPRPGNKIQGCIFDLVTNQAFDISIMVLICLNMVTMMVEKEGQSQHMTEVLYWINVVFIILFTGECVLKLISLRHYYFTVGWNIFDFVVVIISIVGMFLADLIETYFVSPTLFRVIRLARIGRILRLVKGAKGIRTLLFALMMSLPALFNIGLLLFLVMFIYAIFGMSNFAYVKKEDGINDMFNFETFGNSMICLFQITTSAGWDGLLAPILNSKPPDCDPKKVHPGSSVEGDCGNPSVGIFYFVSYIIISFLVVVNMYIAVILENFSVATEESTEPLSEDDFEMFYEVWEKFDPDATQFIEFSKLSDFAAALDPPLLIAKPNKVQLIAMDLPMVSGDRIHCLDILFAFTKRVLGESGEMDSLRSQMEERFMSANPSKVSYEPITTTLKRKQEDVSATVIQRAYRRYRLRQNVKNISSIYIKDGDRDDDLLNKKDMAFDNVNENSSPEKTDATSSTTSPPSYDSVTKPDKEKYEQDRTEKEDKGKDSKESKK
T1 sequence (Q07699 19-218 partner): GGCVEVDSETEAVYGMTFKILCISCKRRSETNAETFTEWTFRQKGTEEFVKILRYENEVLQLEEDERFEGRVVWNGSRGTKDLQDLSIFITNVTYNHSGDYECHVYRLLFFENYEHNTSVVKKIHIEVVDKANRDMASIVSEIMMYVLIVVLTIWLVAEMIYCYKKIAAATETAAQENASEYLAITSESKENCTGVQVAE

The assay has as its target T1, hNav1.7 (Homo sapiens, UniProt Q15858).
T1 construct: expressed in transfected cells
Nature of the assay: Tritiated compound competitive binding to membranes from cells heterologously expressing hNav1.7 and the β1 subunit (LBA). Conditions: read-out: NaV1.7 (LBA). The protocol:
Example 19 Tritiated Compound Binding to Membranes Isolated from Cells that Heterologously Express hNav1.7 and the β1 Subunit
Preparation of membranes containing recombinantly expressed sodium channels: Frozen recombinant cell pellets were thawed on ice and diluted to 4 times the cell pellet weight with ice cold 50 mM Tris HCl, pH 7.4 buffer. The cell suspensions were homogenized on ice using a motorized glass dounce homogeniser. Homogenates were further diluted 8.4 times with ice cold 50 mM Tris HC1, pH 7.4 buffer and then centrifuged at 200× g at 4° C. for 15 min. The supernatants were collected and centrifuged at 10000× g at 4° C. for 50 min. The pellets were then re-suspended in 100 mM NaCl, 20 mM Tris HCl, pH 7.4 buffer containing 1% v/v protease inhibitors (Calbiochem) and re-homogenized on ice. The homogenized membranes were then processed through a syringe equipped with a 26 gauge needle. Protein concentrations were determined by Bradford Assay and the membranes were stored at −80° C.
Radioligand Binding Studies: Saturation experiments. A competitive NaV1.7 inhibitor having a methyl group was tritiated. Three tritiums were incorporated in place of methyl hydrogens to generate[^3H]compound. Binding of this radioligand was performed in 5 mL borosilicate glass test tubes at room temperature. Binding was initiated by adding membranes to increasing concentrations of [^3H]compound in 100 mM NaCl, 20 mM Tris HCl, pH 7.4 buffer containing 0.01% w/v bovine serum albumin (BSA) for 18 h. Non-specific binding was determined in the presence of 1 μM unlabeled compound. After 18 h, the reactants were filtered through GF/C glass fiber filters presoaked in 0.5% w/v polyethylene imine. Filters were washed with 15 mL ice cold 100 mM NaCl, 20 mM Tris HCl, pH7.4 buffer containing 0.25% BSA to separate bound from free ligand. [^3H]compound bound to filters was quantified by liquid scintillation counting.
Competitive binding experiments: Binding reactions were performed in 96-well polypropylene plates at room temperature for 18 h. In 360 μL, membranes were incubated with 100 pM [^3H]compound and increasing concentrations of Test Compound. Non-specific binding was defined in the presence of 1 μM unlabeled compound. Reactions were transferred and filtered through 96-well glass fiber/C filter plates presoaked with 0.5% polyethylene imine. The filtered reactions were washed 5 times with 200 μL ice cold buffer containing 0.25% BSA. Bound radioactivity was determined by liquid scintillation counting.
Data Analysis: For saturation experiments, non-specific binding was subtracted from total binding to provide specific binding and these values were recalculated in terms of pmol ligand bound per mg protein. Saturation curves were constructed and dissociation constants were calculated using the single site ligand binding model: Beq=(Bmax*X)/(X+Kd), where Beq is the amount of ligand bound at equilibrium, Bmax is the maximum receptor density, Kd is the dissociation constant for the ligand, and X is the free ligand concentration. For competition studies percent inhibition was determined and IC50 values were calculated using a 4 parameter logistic model (% inhibition=(A+((B−A)/(1+((x/C)^D)))) using XLfit, where A and B are the maximal and minimum inhibition respectively, C is the IC50 concentration and D is the (Hill) slope.
Take `O=C(O)[C@@H]1CCC[C@H]1S(=O)(=O)c1cc(Cl)c(OCC23CC4CC(CC(C4)C2)C3)cc1F` (racemic) [Example 15]: the IC50 turned out to be 0.454 µM. Take `O=C(O)[C@@H]1CCC[C@H]1C(=O)c1cc(C2CC2)c(OCC23CC4CC(CC(C4)C2)C3)cc1F` [Example 1]: the IC50 came to 0.009 µM.

As for `O=C(O)[C@@H]1CCCC[C@H]1C(=O)c1cc(C2CC2)c(OCC23CC4CC(CC(C4)C2)C3)cc1F` [Example 6], the IC50 was determined as 0.055 µM. Consider `O=C(O)[C@@H]1CCC[C@H]1C(=O)c1cc(Cl)c(OCC23CC4CC(CC(C4)C2)C3)cc1F` [Example 4], for which the IC50 is 0.44 µM. Consider `O=C(O)[C@H]1CCC[C@@H]1C(=O)c1cc(C2CC2)c(OCC23CC4CC(CC(C4)C2)C3)cc1F` [Example 2], for which the IC50 came out at 0.51 µM. `C[C@H]1CC[C@@H](C(=O)c2cc(C3CC3)c(OCC34CC5CC(CC(C5)C3)C4)cc2F)[C@@H]1C(=O)O` [Example 11]: the IC50 was determined as 0.7 µM. For the molecule `O=C(O)[C@@H]1CCC[C@H]1C(=O)c1cc(C2CC2)c(COc2cc(Cl)cc(Cl)c2)cc1F` (relative stereo) [Example 10, (1,2-trans)-2-(5-cyclopropyl-4-((3,5-dichlorophenoxy)methyl)-2-fluorobenzoyl)cyclopentane-1-carboxylic acid], the IC50 was determined as 0.021 µM. For `O=C(O)[C@@H]1CCC[C@H]1C(=O)c1cc(C2CC2)c(OCC2CCN(Cc3cc(C(F)(F)F)ccc3Cl)CC2)cc1F` [Example 13, (1R,2R)-2-(4-((1-(2-chloro-5-(trifluoromethyl)benzyl)piperidin-4-yl)methoxy)-5-cyclopropyl-2-fluorobenzoyl)cyclopentane-1-carboxylic acid], the IC50 is 0.021 µM.

`C[C@@H](c1cc(Cl)cc(Cl)c1)N1CCC(COc2cc(F)c(C(=O)[C@@H]3CCC[C@H]3C(=O)O)cc2C2CC2)CC1` [Example 9, (1,2-trans)-2-(5-cyclopropyl-4-((1-((S)-1-(3,5-dichlorophenyl)ethyl)piperidin-4-yl)methoxy)-2-fluorobenzoyl)cyclopentane-1-carboxylic acid]: the IC50 was 0.051 µM.

In the case of `O=C(O)C1CCCC1Nc1cc(Cl)c(OCC23CC4CC(CC(C4)C2)C3)cc1F` (stereo not drawn) [Example 17, 2-((4-adamant-1-ylmethoxy)-5-chloro-2-fluoro-anilino)cyclopentanecarboxylic acid], the IC50 is 3.02 µM. As to `O=C(O)[C@@H]1CCC[C@H]1C(=O)c1cc(C2CC2)c(OCc2ccccc2)cc1F` (relative stereo) [Example 8, trans-2-(4-(benzyloxy)-5-cyclopropyl-2-fluorobenzoyl)-cyclopentane-1-carboxylic acid], the IC50 was determined as 0.86 µM.

On to `O=C(O)[C@@H]1CCC[C@H]1[S+]([O-])c1cc(Cl)c(OCC23CC4CC(CC(C4)C2)C3)cc1F` (stereo in doubt) [Example 16], for which the IC50 was 1.29 µM. `CN(c1cc(Cl)c(OCC23C[C@H]4C[C@@H](C2)C[C@@H](C3)C4)cc1F)[C@@H]1CCC[C@H]1C(=O)O` (relative stereo) [Example 18, 2-(4-(1-adamantylmethoxy)-5-chloro-2-fluoro-N-methylanilino)-cyclopentanecarboxylic acid]: the IC50 was over 10 µM. With `O=C(O)[C@@H]1CC[C@H]1C(=O)c1cc(C2CC2)c(OCC23CC4CC(CC(C4)C2)C3)cc1F` (racemic) [Example 7], the IC50 was determined as 0.76 µM. As to `O=C(c1cc(Cl)c(OCC23CC4CC(CC(C4)C2)C3)cc1F)[C@H]1CCC[C@H]1C(=O)O` [Example 3], the IC50 amounted to 4.2 µM.

For the molecule `O=C(O)C1CCCC1Sc1cc(Cl)c(OCC23CC4CC(CC(C4)C2)C3)cc1F` (stereo not drawn) [Example 14], the IC50 amounted to 2.63 µM. As for `C[C@@H]1CC[C@H](C(=O)c2cc(C3CC3)c(OCC34CC5CC(CC(C5)C3)C4)cc2F)[C@H]1C(=O)O` [Example 12], the figure is 0.003 µM; as for `O=C(O)[C@@H]1CCC[C@H]1Cc1cc(C2CC2)c(OCC23CC4CC(CC(C4)C2)C3)cc1F` [Example 5], 3.1 µM.
